In PMC10787068, “Targeting the Mitochondrial Chaperone TRAP1 Alleviates Vascular Pathologies in Ischemic Retinopathy” (Advanced Science, 2023):
“Also recorded” adds a separate entry of the source.

How the values were obtained:
[1] = system: mouse cornea; test: Corneal toxicity after topical application (H&E staining); assay type: in vivo; details: 2 mM once daily for 6 days
Method: (§1) their cytotoxic activities were analyzed in four independent experiments by trypan blue staining. The calculated IC50 values are presented in the normal cell cytotoxicity column in Table 1. B) Topical toxicity of TRAP1 inhibitors. A 3D culture of human corneal epithelium (MCTT HCE) was incubated with 2 mM TRAP1 inhibitors and analyzed by H&E staining.
The culture thickness (n = 5) was measured and analyzed (Table S1). Scale bar, 25 μm. C) Corneal toxicity. After topical application of 2 mM MitoQ, SB-U014, or SB-U015 once daily for 6 days, the mouse cornea was harvested and analyzed by H&E staining. Treatment with […]
Supplementary Table 1. Percentage viability and thickness of the 3D culture of MCTT […]
Drug Percentage viability (%) Thickness (μm)
A 3D culture of human corneal epithelium (MCTT HCE) was incubated with 2 mM TRAP1 inhibitors, and the percentage viability was analyzed by the WST-1 assay (n = 4). Absorbance was measured with a microplate reader. Thickness was calculated from H&E staining images (n = 5) as in Figure S18B, Supporting information. Data Information: The data are […]

[2] = system: 3D human corneal epithelial (HCE) model, MCTT HCE; test: Eye irritation test with MCTT HCE (OECD test guideline 492); assay type: cell-based; details: 3D culture MCTT HCE, TRAP1 inhibitors at 2 mM, H&E staining images, n = 5, mean ± SEM
Method: An eye irritation test was performed using a 3D human corneal epithelial (HCE) model, called MCTT HCE (KeraSkin; Biosolution, Seoul, Republic of Korea), for OECD test guideline 492, following the manufacturer's instructions. In brief, HCE tissues were incubated overnight in medium provided by the supplier. Thereafter, 2 mM MitoQ, SB‐U014, and SB‐U015 were applied to the upper epithelial surface of HCE tissues and incubated for 10 min. After removing the drugs by washing the tissues with PBS, the tissues were further incubated for 16 h, and then subjected to the WST‐1 assay for viability assessment and fixed in 4% PFA for histological analysis. […]
as §1, with “B) Topical toxicity of TRAP1 inhibitors.” left out
The culture thickness (n = 5) was measured and analyzed (Table S1). […] After topical application of 2 mM MitoQ, SB-U014, or SB-U015 once daily for 6 days, the mouse cornea was harvested and analyzed by H&E staining. […]
A 3D culture of human corneal epithelium (MCTT HCE) was incubated with 2 mM TRAP1 inhibitors, and the percentage viability was analyzed by the WST-1 assay (n = 4). Absorbance was measured with a microplate reader. […]

[3] = system: calpain; test: Calpain activity assay in MIO‐M1 cells; assay type: cell-based, human; details: 3 µM gamitrinib or 0.5 µM MitoQ, 6 h under hypoxia, fluorogenic calpain substrate, n = 4
Method: (§2) Figure 5 TRAP1 inhibition induces mPTP opening, mitochondrial calcium discharge, and calpain‐1 activation. A) Visualization of cytoplasmic calcium. Fluo‐4 AM‐labeled MIO‐M1 cells were incubated with the TRAP1 inhibitors gamitrinib and MitoQ^[ [32], [41] ^] for 6 h or thapsigargin for 30 min under hypoxia, and analyzed by confocal microscopy. Scale bars, 10 µm and 2 µm (inset). […] MIO‐M1 cells were treated with a TRAP1 inhibitor, 3 µM gamitrinib or 0.5 µM MitoQ, for 6 h under hypoxia (n = 4). Enzyme activity was measured using a fluorogenic calpain substrate as described in the Experimental Section. C) Restored HIF1α expression upon CypD inhibition. MIO‐M1 cells were incubated with control or CypD‐targeting siRNAs, treated with the TRAP1 inhibitor MitoQ for 6 h under hypoxia, harvested, and analyzed by western blotting. Black and red arrows indicate pro and autolyzed forms of calpain‐1, respectively. […] MIO‐M1 cells were incubated with TRAP1‐targeting siRNAs for 48 h, exposed to hypoxia for 6 h, harvested, and analyzed by qPCR (n = 4). […] Cells were then analyzed by flow cytometry to detect cytoplasmic calcium. […] MIO‐M1 cells were incubated with TRAP1 inhibitors, 3 µM gamitrinib, and 0.5 µM MitoQ, and a cell‐permeable calcium chelator, BAPTA (10 µM), for 6 h as indicated under hypoxia and analyzed by western blotting. […] Data information: Data are expressed as mean ± SEM. […]

[4] = system: Trap1 KO MIO-M1 cells; test: TRAP1 inhibitor effects in Trap1 KO MIO‐M1 cells; assay type: cell-based, human
Method: MIO‐M1 Trap1 KO cell lines were generated using CRISPR/Cas9‐derived RNA‐guided endonucleases (Toolgen; Seoul, Republic of Korea). MIO‐M1 cells were co‐transfected with the Cas9 vector and TRAP1‐sgRNA expression vector (sgRNA sequence 1; 5′‐[…]‐3′ and sequence 2; 5′‐[…]‐3′) using jetPRIME transfection reagent (Polyplus; Illkirch‐Graffenstaden, France). Transfected cells were selected in culture medium containing […] puromycin (Sigma). Single‐cell colonies were collected using a cloning cylinder (I.D. × H 6.4 mm × 8 mm; Sigma) and analyzed using T7 endonuclease I to confirm Trap1 KO.
Supplementary Figure 16. Calpain-1 autolysis and HIF1α degradation in Trap1 […]
A) HIF1α degradation and calpain-1 autolysis in Trap1 knockout (KO) MIO-M1 cells. Trap1 KO MIO-M1 cells were generated as described in the Experimental Section and incubated in hypoxia for 6 hr, followed by analysis using western blotting. Under hypoxia, HIF1α degradation and autoproteolysis of calpain-1 were found in Trap1 KO MIO-M1 cells, when compared with wild type (WT) cells. […]
cell lines were established using MIO-M1 cells. WT and KO cells were incubated with MitoQ for 6 hr under hypoxia and analyzed by western blotting. Trap1 KO reduced the expression of […]
Quantification of the HIF1α protein level. HIF1α western blot density was analyzed and compared. Data are expressed as mean ± SEM from four independent experiments.
C) Cytoplasmic calcium concentration. WT and Trap1-KO MIO-M1 cells were labeled with […]
Fluo-4 AM, incubated with 3 μM gamitrinib or 1 μM MitoQ for 6 hr under hypoxia, collected, and analyzed by flow cytometry. Data information: Data are expressed as mean ± SEM.
Student t-test, ***P < 0.001; ns, not significant. […]

[5] = system: MIO‐M1 cells; test: Cytoplasmic calcium (Fluo‐4 AM) in MIO‐M1 cells; assay type: cell-based, human; details: Fluo‐4 AM‐labeled MIO‐M1 cells under hypoxia; MitoQ 6 h, thapsigargin 30 min
Method: as §2

SMILES: COC1=C(OC)C(=O)C(CCCCCCCCCC[P+](c2ccccc2)(c2ccccc2)c2ccccc2)=C(C)C1=O [MitoQ, mitoquinone]
- histologic abnormality of cornea after topical application [1]: did not cause any noticeable abnormality
- Thickness (μm) [2]: 53.43 ± 2.79 μm
- calpain enzyme activity [3]: Calpain activation
- cytosolic calcium concentration in Trap1−/− cells ([4]; 3 μM gamitrinib or 1 μM MitoQ, 6 hr under hypoxia, Fluo-4 AM flow cytometry): did not affect
- HIF1α expression in Trap1−/− cells ([4]; 6 hr under hypoxia, western blotting): not further affected; also recorded: did not affect
- calpain‐1 activation in Trap1−/− cells ([4]; hypoxia): did not affect
- cytoplasmic calcium [5]: Modestly elevated
